From patent publication US7179806B2, “Δ1-pyrrolines used as pesticides” (Bayer Cropscience AG, priority 2000, dated 2007)

experiment: log P determination by HPLC (reversed-phase C18, EEC Directive 79/831 Annex V.A8); assay type: physicochemical; details: pH 2.3, 0.1% aqueous phosphoric acid/acetonitrile gradient, 43° C
From the text: Mobile phases for determination in the acidic range: 0.1% aqueous phosphoric acid, acetonitrile; linear gradient from 10% acetonitrile to 90% acetonitrile.

| SMILES | chromatographic logP |
| --- | --- |
| CC(C)(C)OC(=O)N1CCN(c2ccc(-c3ccc(C4CCC(c5c(F)cccc5F)=N4)cc3)nn2)CC1 (stereo not shown) [Example 51] | 2.07 |

same assay, conditions: reversed-phase C18 HPLC column, pH 2.3, pH 2.3, 0.1% aqueous phosphoric acid/acetonitrile gradient, 43° C

| chromatographic logP | SMILES |
| --- | --- |
| 3.49 | CC(C)Sc1ncc(-c2ccc(C3CCC(c4c(F)cccc4F)=N3)cc2)cn1 (stereo not shown) [Example 31] |
| 1.56 | O=S(=O)(Nc1ccc(Cl)nn1)C(F)(F)F [III-22, N-(6-chloro-3-pyridazinyl)(trifluoro)methane-sulphonamide] |
| 3.88 | Cc1ccc(N2CCN(c3ncc(-c4ccc(C5CCC(c6c(F)cccc6F)=N5)cc4)cn3)CC2)cc1C (stereo not shown) [Example 116] |
| 1.85 | O=C1CCCN1c1ccc(-c2ccc(C3CCC(c4c(F)cccc4F)=N3)cc2)nn1 (stereo not shown) [Example 50] |
| 1.98 | CC(C#N)c1ccc(-c2ccc(C3CCC(c4c(F)cccc4F)=N3)cc2)nc1 (stereo not shown) [Example 213] |
| 3.7 | Fc1cccc(F)c1C1=NC(c2ccc(-c3ccc(OC(C(F)(F)F)C(F)(F)F)nn3)cc2)CC1 (stereo not shown) [Example 69] |
| 0.9 | CCNCc1ccc(-c2ccc(C3CCC(c4c(F)cccc4F)=N3)cc2)nc1 (stereo not shown) [Example 201] |
| 1.45 | Fc1cccc(F)c1C1=NC(c2ccc(-c3ccc(N4CCCC4)nc3)cc2)CC1 (stereo not shown) [Example 24] |
| 2.06 | Fc1cccc(F)c1C1=NC(c2ccc(-c3cnc(N4CCN(c5ccccn5)CC4)nc3)cc2)CC1 (stereo not shown) [Example 159] |
| 1.98 | Fc1cccc(F)c1C1=NC(c2ccc(-c3cnc(-n4cccn4)nc3)cc2)CC1 (stereo not shown) [Example 130] |
| 3.83 | CC(C)ON=C1CCN(c2ncc(-c3ccc(C4CCC(c5c(F)cccc5F)=N4)cc3)cn2)CC1 (stereo not shown) [Example 217] |
| 4.83 | Fc1cccc(F)c1C1=NC(c2ccc(-c3cnc(N4CCN(c5cccc(Cl)c5)CC4)nc3)cc2)CC1 (stereo not shown) [Example 136] |
| 1.12 | Fc1cccc(F)c1C1=NC(c2ccc(-c3cccnc3)cc2)CC1 (stereo not shown) [Example 18] |
| 2.95 | CCCN(C(=O)C(C)(C)C)c1ccc(-c2ccc(C3CCC(c4c(F)cccc4F)=N3)cc2)nn1 (stereo not shown) [Example 62] |
| 3 | CCN(CC)c1ncc(-c2ccc(C3CCC(c4c(F)cccc4F)=N3)cc2)cn1 (stereo not shown) [Example 43] |
| 1.66 | CN(c1ccc(-c2ccc(C3CCC(c4c(F)cccc4F)=N3)cc2)nn1)S(=O)(=O)C(F)(F)F (stereo not shown) [Example 53] |
| 1.26 | CCOCCN1CCN(c2ccc(-c3ccc(C4CCC(c5c(F)cccc5F)=N4)cc3)cn2)CC1 (stereo not shown) [Example 193] |
| 2.89 | CN(Cc1ccc(Cl)nc1)c1ncc(-c2ccc(C3CCC(c4c(F)cccc4F)=N3)cc2)cn1 (stereo not shown) [Example 208] |
| 2.65 | CON=C1CCN(c2ncc(-c3ccc(C4CCC(c5c(F)cccc5F)=N4)cc3)cn2)CC1 (stereo not shown) [Example 215] |
| 2.02 | CCCCCN1CCN(c2ncc(-c3ccc(C4CCC(c5c(F)cccc5F)=N4)cc3)cn2)CC1 (stereo not shown) [Example 155] |
| 1.58 | O/N=C/c1ccc(-c2ccc(C3CCC(c4c(F)cccc4F)=N3)cc2)nc1 (stereo not shown) [Example 210] |
| 4.38 | CC1(C)CCN(c2ncc(-c3ccc(C4CCC(c5c(F)cccc5F)=N4)cc3)cn2)CC1 (stereo not shown) [Example 120] |
| 2.13 | CCC(CC)N1CCN(c2ncc(-c3ccc(C4CCC(c5c(F)cccc5F)=N4)cc3)cn2)CC1 (stereo not shown) [Example 135] |
| 2.22 | COc1ccc(CN2CCN(c3ncc(-c4ccc(C5CCC(c6c(F)cccc6F)=N5)cc4)cn3)CC2)cc1 (stereo not shown) [Example 142] |

| chromatographic logP | SMILES |
| --- | --- |
| 1.89 | O=C1CCCCCN1c1ncc(-c2ccc(C3CCC(c4c(F)cccc4F)=N3)cc2)cn1 (stereo not shown) [Example 167] |
| 2.42 | CCOC(=O)c1cncc(-c2ccc(C3CCC(c4c(F)cccc4F)=N3)cc2)c1 (stereo not shown) [Example 220] |
| 1.61 | COC(=O)C1CCN(c2ccc(-c3ccc(C4CCC(c5c(F)cccc5F)=N4)cc3)cn2)CC1 (stereo not shown) [Example 170] |
| 2.39 | CC(C)Oc1ncc(Br)cn1 [III-7, 5-bromo-2-pyrimidinyl isopropyl ether] |
| 1.82 | CCCN(CCC)c1ccc(Cl)nn1 [III-12, N-(6-chloro-3-pyridazinyl)-N,N-dipropylamine] |
| 2.53 | CC(C)(C)C(=O)N(c1ccc(-c2ccc(C3CCC(c4c(F)cccc4F)=N3)cc2)nn1)C1CC1 (stereo not shown) [Example 66] |
| 3.22 | CC(C)COc1ncc(-c2ccc(C3CCC(c4c(F)cccc4F)=N3)cc2)cn1 (stereo not shown) [Example 33] |
| 3.89 | CCCCCCC(=O)N(CCC)c1ccc(-c2ccc(C3CCC(c4c(F)cccc4F)=N3)cc2)nn1 (stereo not shown) [Example 64] |
| 2.86 | Fc1cccc(F)c1C1=NC(c2ccc(-c3ccc(Cl)cn3)cc2)CC1 (stereo not shown) [Example 5] |
| 3.28 | Fc1cccc(F)c1C1=N[C@@H](c2ccc(-c3ccc(C(F)(F)F)cn3)cc2)CC1 [Example 94] |
| 3.62 | CN(C)c1ncc(-c2ccc(C3CCC(c4c(F)cccc4F)=N3)cc2)cn1 (stereo not shown) [Example 29] |
| 2.69 | Fc1cccc(F)c1C1=NC(c2ccc(-c3ccc(Br)nc3)cc2)CC1 (stereo not shown) [Example 179] |
| 1.86 | CCCN(CCC)c1ccc(-c2ccc(C3CCC(c4c(F)cccc4F)=N3)cc2)nn1 (stereo not shown) [Example 78] |
| 1.49 | Fc1cccc(F)c1C1=NC(c2ccc(-c3cncnc3)cc2)CC1 (stereo not shown) [Example 28] |
| 2.86 | CC(C)(C)C(=O)N1CCN(c2ncc(Br)cn2)CC1 [III-6, 1-(tert-butylcarbonyl)-4-(5-bromo-2-pyrimidinyl)piperazine] |
| 1.94 | CC(C)Oc1ccc(Cl)nn1 [III-18, 3-chloro-6-isopropoxypyridazine] |
| 1.5 | Fc1cccc(F)c1C1=NC(c2ccc(-c3ccc(N4CCN(c5ncccn5)CC4)nc3)cc2)CC1 (stereo not shown) [Example 204] |
| 3.95 | Fc1ccc(N2CCN(c3ncc(-c4ccc(C5CCC(c6c(F)cccc6F)=N5)cc4)cn3)CC2)cc1 (stereo not shown) [Example 149] |
| 4.11 | CN(c1ncc(-c2ccc(C3CCC(c4c(F)cccc4F)=N3)cc2)cn1)C1CCCCC1 (stereo not shown) [Example 212] |
| 2.7 | Fc1cccc(F)c1C1=NC(c2ccc(-c3cnc(N4CCN(c5ncccn5)CC4)nc3)cc2)CC1 (stereo not shown) [Example 117] |
| 1.28 | Fc1cccc(F)c1C1=NC(c2ccc(-c3ccc(-n4ccnc4)nc3)cc2)CC1 (stereo not shown) [Example 114] |
| 4.7 | Fc1cccc(F)c1C1=NC(c2ccc(-c3cnc(N4CCN(Cc5ccc(C(F)(F)F)cc5)CC4)nc3)cc2)CC1 (stereo not shown) [Example 144] |
| 1.39 | CCN(CC)c1ccc(-c2ccc(C3CCC(c4c(F)cccc4F)=N3)cc2)nn1 (stereo not shown) [Example 80] |
| 2.61 | CC(C)Oc1ncc(-c2ccc(C3CCC(c4c(F)cccc4F)=N3)cc2)cn1 (stereo not shown) [Example 30] |

| chromatographic logP | SMILES |
| --- | --- |
| 4.12 | Fc1cccc(F)c1C1=NC(c2ccc(-c3ncc(-c4ccc(Cl)cc4)cn3)cc2)CC1 (stereo not shown) [Example 188] |
| 1.63 | CCOC(=O)N1CCN(c2ccc(-c3ccc(C4CCC(c5c(F)cccc5F)=N4)cc3)nn2)CC1 (stereo not shown) [Example 70] |
| 3.07 | Fc1cccc(F)c1C1=NC(c2ccc(-c3ccc(Br)cn3)cc2)CC1 (stereo not shown) [Example 110] |
| 2.58 | Cc1ccc(N2CCN(c3ccc(-c4ccc(C5CCC(c6c(F)cccc6F)=N5)cc4)cn3)CC2)cc1C (stereo not shown) [Example 191] |
| 2.58 | Fc1cccc(F)c1C1=NC(c2ccc(-c3cnc(NC4CCCC4)nc3)cc2)CC1 (stereo not shown) [Example 161] |
| 6.7 | Fc1cccc(F)c1C1=NC(c2ccc(-c3ccc(N4CCN(CC5CCCCC5)CC4)nc3)cc2)CC1 (stereo not shown) [Example 128] |
| 1.2 | CC(C)S(=O)(=O)c1ccc(Cl)nn1 [III-21, 6-chloro-3-pyridazinyl isopropyl sulphone] |
| 3 | CN(C)CCN1CCN(c2ncc(-c3ccc(C4CCC(c5c(F)cccc5F)=N4)cc3)cn2)CC1 (stereo not shown) [Example 132] |
| 3.67 | Fc1cccc(F)c1C1=NC(c2ccc(-c3cnc(OC4CCCCC4)nc3)cc2)CC1 (stereo not shown) [Example 198] |
| 2.46 | CCc1cnc(-c2ccc(C3CCC(c4c(F)cccc4F)=N3)cc2)nc1 (stereo not shown) [Example 181] |
| 2.88 | Fc1cccc(F)c1C1=NC(c2ccc(-c3cnc(OC4CCC4)nc3)cc2)CC1 (stereo not shown) [Example 197] |
| 1.14 | CC(C)N1CCN(c2ccc(-c3ccc(C4CCC(c5c(F)cccc5F)=N4)cc3)cn2)CC1 (stereo not shown) [Example 192] |
| 3.56 | CC(C)(C)C(=O)N(c1ccc(-c2ccc(C3CCC(c4c(F)cccc4F)=N3)cc2)nn1)C1CCCCC1 (stereo not shown) [Example 65] |
| 4 | Fc1cccc(F)c1C1=NC(c2ccc(-c3cnc(SCSC(F)(F)F)nc3)cc2)CC1 (stereo not shown) [Example 92] |
| 2.9 | CCCCCNc1ncc(-c2ccc(C3CCC(c4c(F)cccc4F)=N3)cc2)cn1 (stereo not shown) [Example 154] |
| 5.82 | CCC1CC(CC)CN(c2ncc(-c3ccc(C4CCC(c5c(F)cccc5F)=N4)cc3)cn2)C1 (stereo not shown) [Example 103] |
| 1.5 | Fc1cccc(F)c1C1=NC(c2ccc(-c3ccc(N4CCN(Cc5ccccc5)CC4)nc3)cc2)CC1 (stereo not shown) [Example 189] |
| 3.6 | CCN(Cc1ccc(Cl)nc1)c1ncc(-c2ccc(C3CCC(c4c(F)cccc4F)=N3)cc2)cn1 (stereo not shown) [Example 209] |
| 2.81 | CC(C)(C)C(=O)N1CCN(c2ncc(-c3ccc(C4CCC(c5c(F)cccc5F)=N4)cc3)cn2)CC1 (stereo not shown) [Example 36] |
| 3 | Fc1cccc(F)c1C1=NC(c2ccc(-c3ccc(N4CCN(c5cccc(C(F)(F)F)c5)CC4)nc3)cc2)CC1 (stereo not shown) [Example 203] |
| 1.3 | CCC(C)N1CCN(c2ccc(-c3ccc(C4CCC(c5c(F)cccc5F)=N4)cc3)cn2)CC1 (stereo not shown) [Example 113] |
| 2.56 | CCCCN(CCCC)c1ccc(-c2ccc(C3CCC(c4c(F)cccc4F)=N3)cc2)nn1 (stereo not shown) [Example 55] |
| 2.45 | COCCN(CCC#N)c1ncc(-c2ccc(C3CCC(c4c(F)cccc4F)=N3)cc2)cn1 (stereo not shown) [Example 178] |
| 1.84 | Fc1cccc(F)c1C1=NC(c2ccc(-c3cnc(N4CCN(CCc5ccccc5)CC4)nc3)cc2)CC1 (stereo not shown) [Example 168] |
